Publication PMC10704561, “Multi-Photon-Sensitive Chromophore for the Photorelease of Biologically Active Phenols” (ACS Chemical Neuroscience, 2023)
Read-outs that look alike come from different tables or passages of the source.

Columns and labels:
[1] = system: dLight 1.2; test: Activation of dLight 1.2 on HCT 116 cells by photoreleased dopamine; type: cell-based; details: for dLight 1.2 response after photoactivation (1PE): 10 μM
Procedure: (§1) HCT 116 cells were grown in Dulbecco’s […] medium (DMEM) supplemented with 10% fetal bovine serum (FBS), 1% nonessential amino acids (NEAA), and maintained at 37 °C and 5% CO2. HEK 293 cells stably expressing TRPV1 channels were grown as previously described.[62]
(§2) An Olympus FluoView FV1000MPE confocal microscope was employed to image and record cells plated onto 35 mm glass-bottom 4-well plates. A 488 nm ion laser excited the dopamine and serotonin sensors dLight 1.2 and GRAB5-HT, respectively, and Fluo-4 calcium dye. FluoView 10-ASW version 4.0 (Olympus), ImageJ-Fiji, and DeltaGraph (Red Rock Software) were used for capturing, extracting, and processing the collected data. Photoactivation was conducted with 405 nm (100% laser power, 1PE) or 720 nm (10% laser power, 24 mW, 2PE) light for MeO-CyHQ-O-DA and MeO-CyHQ-O-5HT or 740 nm (20% laser power, 15 mW light) for MeO-CyHQ-O-VNA and MeO-CyHQ-O-EG. Images were captured by using a 60× immersion lens.
(§3) HCT 116 cells were grown to 70% confluency on specialized glass-bottom plates for imaging. After 24 h, the cells were transfected (70% efficiency) with either dLight 1.2 or GRAB5-HT. Before imaging, the DMEM was discarded and the cells were washed twice with HBSS. HBSS (500 μL) was added per well for imaging. DMSO was used to dissolve the compounds CyHQ-O-DA, MeO-CyHQ-O-DA, and MeO-CyHQ-O-5HT to make 1 mM stock solutions. These were then added to the wells to obtain the desired final concentrations, keeping the DMSO concentration to less than 1%, which is tolerated by the cells. Control experiments included optimization of the response of the dLight 1.2 and GRAB5-HT sensors to the release of dopamine and serotonin, respectively, through exposure to different concentrations of CyHQ-O-DA, MeO-CyHQ-O-DA, and MeO-CyHQ-O-5HT at different durations of 405 nm light. Optimizations were conducted in a similar manner for activation through 2PE. Light dose–response curves were generated by applying a 405 nm light pulse for 1, 10, 50, 100, 200, 300, 400, 500, 600, 750, and 1000 ms at 50 frame intervals for CyHQ-O-DA, MeO-CyHQ-O-DA, and MeO-CyHQ-O-5HT.

[2] = One-photon excitation (1PE) photolysis with 365 nm LED, HPLC quantification; type: physicochemical; details: for t90% (time required to consume 90% of the starting material): 1PE 365 nm LED, lamp intensity differs per compound (Table S1)
Procedure: A 0.1 mM solution (3 mL) of each protected phenol in KMOPS buffer (10 or 20% CH3CN was used as a cosolvent for 3d and 6c) was placed in a 3 mL quartz cuvette along with a stirring bar. The solution was irradiated with stirring using a 365 nm LED lamp (Cairn OptoLED Lite). At different time intervals, 80 μL aliquots of the solution were taken out and analyzed by uHPLC (Agilent 1290 Infinity series), monitoring the AUC at 320 nm (Supporting Information, HPLC Data). An external standard calibration method of quantification was used for the calibration of the samples. The experiments were repeated in sets of three. A gradient elution with a flux rate of 0.3 mL/min using a mobile phase comprising A = 0.1% trifluoroacetic acid in water and B = acetonitrile (starting from 5% B to 100% over 10 min and re-equilibrating to 5% B before the next run) was used for the separations. A comparison of the AUC with the calibration curves of the substrates (obtained from known concentration) determined the percentages of the remaining starting materials. The percentages of the remaining starting materials were plotted versus time. The time to 90% of decomposition of the substrate (t90% values) was obtained by fitting a single exponential decay curve to the data using DeltaGraph (Red Rock Software). The following equation was used to calculate the quantum yield (Φu) of each photolysis reaction:[42],[47],[56],[57] Φu = (I σ t90%)^−1, where I is the irradiation intensity (determined by potassium ferrioxalate actinometry and measured in Einstein cm^–2 s^–1),[58] σ is the decadic extinction coefficient (1000 × ε) at 365 nm, and t90% is the time required to consume 90% of the starting material. See Supporting Information Table S1 for the I, σ, and t90% data.

[3] = Spontaneous hydrolysis in the dark; type: physicochemical; details: 0.1 mM in KMOPS pH 7.2, dark, 7 days
Procedure: A 0.1 mM solution of each compound was prepared in KMOPS buffer. For compounds 3d and 6c, 20% CH3CN was used as a cosolvent. The solutions were kept in the dark for 7 days, and the percentage of the starting materials was determined by periodic HPLC analysis (Supporting Information, HPLC Data).

[4] = Solubility in KMOPS buffer pH 7.2; type: physicochemical; details: aqueous buffer; KMOPS buffer, pH 7.2; read-out: solubility
Text: The photochemical and photophysical properties were investigated in a simulated physiological buffer (KMOPS, pH 7.2) and compared with the literature data for CyHQ-O-DA (Table 1). […] For this derivative, 10% CH3CN in the buffer was used to ensure complete solubilization for the photochemistry experiments. The spontaneous hydrolysis in the dark was monitored over a period of 7 days and no significant hydrolysis was detected for any of the constructs. The molar absorptivity at the wavelength used for 1PE photolysis (ε365) ranged between 4800 and 5670 M^–1 cm^–1, in line with the values of most CyHQ-based PPGs.
The photochemical behavior of constructs 4–7c was investigated in KMOPS buffer at the concentration of 0.1 mM. Under these conditions, all compounds were soluble except for the VNA analogue 6c, which, because of the lipophilicity of the vanilloid, required 20% CH3CN for full solubilization. The stability toward hydrolysis in the dark was monitored over a week, and no significant decomposition was detected for any probe. All constructs were successfully photolyzed after light exposure, as shown in the time courses of the photolysis reactions (Figure 3). MeO-CyHQ constructs 4c, 6c, and 7c were photoactivated with excellent quantum efficiency and sensitivities, and good chemical yields were obtained by monitoring the appearance of the released bioeffector over the time course of the photoreaction (Table 1). […] We believe this effect is due to the presence of the thiophene ring, a well-known photoactive group,[51] which could act as an energy sink in the excited state and quench the photochemical reaction.

[5] = UV-vis spectra and molar extinction coefficient in KMOPS buffer; type: physicochemical; details: 0.1 mM in KMOPS buffer, pH 7.2 (3d, 6c: 10 or 20% CH3CN added)
Procedure: A 100 μM solution of each protected phenol was prepared in KMOPS buffer (20% CH3CN was used as a cosolvent for compounds 3d and 6c). The UV–vis spectra of these solutions were recorded at between 250 and 500 nm. All of the measurements were repeated in triplicate, and the absorbance values were averaged. The Beer–Lambert law, ε = A(cl)^−1, was used for the calculation of ε values at λ = 365 nm, where A is the absorbance value measured at 365 nm, c is the concentration of the sample, and l is the cuvette length (1 cm). See the Supporting Information for the spectra.

[6] = system: GRAB5-HT; test: Activation of GRAB5-HT on HCT 116 cells by photoreleased serotonin; type: cell-based
Procedure: as §1, §2
as §3, with “Light dose–response curves were generated by applying a 405 nm light pulse for 1, 10, 50, 100, 200, 300, 400, 500, 600, 750, and 1000 ms at 50 frame intervals for CyHQ-O-DA, MeO-CyHQ-O-DA, and MeO-CyHQ-O-5HT.” left out

[7] = set-up: method as in PMID 32077679; details: cited from earlier work
[8] = set-up: method as in PMID 32077679; details: KMOPS buffer, pH 7.2; cited from earlier work
[9] = set-up: method as in PMID 32077679; details: KMOPS buffer, pH 7.2; cited from earlier work; remark: listed apart in the source

COc1cc(COc2ccc(CCN)cc2O)nc2c(C#N)c(O)ccc12.O=C(O)C(F)(F)F [3c, 2-(4-((8-Cyano-7-hydroxy-4-methoxyquinolin-2-yl)methoxy)-3-hydroxyphenyl)ethan-1-aminium 2,2,2-trifluoroacetate]
dLight 1.2 response after photoactivation (1PE) ([1]; 10 ms flash of 405 nm light): robust response
dLight 1.2 response after photoactivation (2PE) ([1]; 100 μM, 200 ms flash of 720 nm light): activated dLight 1.2
t90% (time required to consume 90% of the starting material) [2]: 25.4 s
irradiation time to complete the 1PE photolysis reaction ([2]; 365 nm): less than 1 min
τd (time constant of spontaneous hydrolysis in buffer in the dark at room temperature) [3]: nh (No hydrolysis (<5% detected after 7 days))
solubility [4]: > 100 µM
ε365 [5]: 5670 M^–1 cm^–1
λmax [5]: 354 nm

COc1cc(COc2ccc3[nH]cc(CCN)c3c2)nc2c(C#N)c(O)ccc12.O=C(O)C(F)(F)F [4c, 2-(5-((8-Cyano-7-hydroxy-4-methoxyquinolin-2-yl)methoxy)-1H-indol-3-yl)ethan-1-aminium 2,2,2-trifluoroacetate]
t90% (time required to consume 90% of the starting material) [2]: 18.4 s
τd (time constant of spontaneous hydrolysis in buffer in the dark at room temperature) [3]: nh (No hydrolysis (<5% detected after 7 days))
GRAB5-HT response after photoactivation (1PE) ([6]; 20 μM, 20 ms burst of 405 nm light): robust response
GRAB5-HT response after photoactivation (2PE) ([6]; 200 μM, 200 ms pulse of 720 nm light): robust response
light pulse duration at which the GRAB5-HT response plateaus ([6]; 405 nm (1PE), 20 μM): around 200 ms
solubility [4]: > 100 µM
ε365 [5]: 5400 M^–1 cm^–1
λmax [5]: 355 nm

N#Cc1c(O)ccc2ccc(COc3cc(CCN)ccc3O)nc12 [CyHQ-O-DA]
dLight 1.2 response after photoactivation (1PE) ([1]; 405 nm light pulse): increase in fluorescence output
τd (time constant of spontaneous hydrolysis in buffer in the dark at room temperature) [7]: nh ^g (No hydrolysis (<5% detected after 7 days))
ε365 [8]: 5300 M^–1 cm^–1
λmax [8]: 365 nm
solubility [9]: >100 µM

NCCc1ccc(O)c(O)c1 [dopamine, reference compound]
dLight 1.2 response to bulk addition ([1]; 100 μM, no photoactivation): increase in fluorescence output
